What is called inhibition is the drop in the measured response relative to a control, in per cent. In general, IC50 refers to the point on the concentration scale where inhibition reaches its midpoint. Read a high IC50 as a need for much substance.

Test [1] has as its target T1, CX3C chemokine receptor 1 (Homo sapiens) (UniProt P49238).
T1 sequence (whole entry): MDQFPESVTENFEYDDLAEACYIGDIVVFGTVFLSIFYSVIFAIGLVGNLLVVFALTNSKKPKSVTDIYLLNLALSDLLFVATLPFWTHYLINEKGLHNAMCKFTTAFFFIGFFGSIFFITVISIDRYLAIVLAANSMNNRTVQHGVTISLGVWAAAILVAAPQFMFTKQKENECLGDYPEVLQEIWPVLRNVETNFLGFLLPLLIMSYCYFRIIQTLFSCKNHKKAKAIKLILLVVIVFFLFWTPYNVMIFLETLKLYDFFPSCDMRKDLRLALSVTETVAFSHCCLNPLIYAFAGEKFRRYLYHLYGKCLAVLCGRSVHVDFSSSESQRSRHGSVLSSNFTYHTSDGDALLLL
Description: Agonist activity at human CX3CR1 expressed in CHO-K1 cells at 20 uM by PathHunter beta-arrestin assay relative to control. In kind it is cell-based.

Test [2] has as its target T2, C-C chemokine receptor type 3 (Homo sapiens) (UniProt P51677).
T2 sequence (whole entry): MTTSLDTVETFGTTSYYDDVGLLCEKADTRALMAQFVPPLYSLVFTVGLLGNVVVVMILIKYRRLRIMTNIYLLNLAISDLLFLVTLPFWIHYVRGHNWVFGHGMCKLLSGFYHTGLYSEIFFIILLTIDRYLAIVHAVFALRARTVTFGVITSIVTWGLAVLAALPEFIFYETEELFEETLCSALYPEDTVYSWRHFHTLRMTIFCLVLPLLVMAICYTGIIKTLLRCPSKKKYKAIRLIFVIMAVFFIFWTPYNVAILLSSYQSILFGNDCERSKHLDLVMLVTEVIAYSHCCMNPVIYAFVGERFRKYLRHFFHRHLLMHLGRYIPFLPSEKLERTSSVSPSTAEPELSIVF
Description: Antagonist activity at human CCR3 expressed in CHO-K1 cells at 20 uM by PathHunter beta-arrestin assay relative to control. In kind it is cell-based.

The target in test [3] is T3, Vasopressin V2 receptor (Homo sapiens, UniProt P30518). Description: Antagonist activity at human AVPR2 at 20 uM by PathHunter beta-arrestin assay relative to control.
T3 sequence (P30518 whole entry): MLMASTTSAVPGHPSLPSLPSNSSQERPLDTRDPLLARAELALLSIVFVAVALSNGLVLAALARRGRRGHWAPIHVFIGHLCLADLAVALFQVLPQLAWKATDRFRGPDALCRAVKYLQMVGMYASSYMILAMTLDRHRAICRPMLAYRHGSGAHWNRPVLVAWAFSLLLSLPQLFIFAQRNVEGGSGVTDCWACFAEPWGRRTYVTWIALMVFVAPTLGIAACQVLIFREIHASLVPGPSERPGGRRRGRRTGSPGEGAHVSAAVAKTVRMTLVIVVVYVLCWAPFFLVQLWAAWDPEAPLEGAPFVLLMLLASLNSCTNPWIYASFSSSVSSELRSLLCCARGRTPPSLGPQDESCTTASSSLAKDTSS
In test [4] the target is T4, Follicle-stimulating hormone receptor (Homo sapiens) (UniProt P23945).
T4 sequence (whole entry): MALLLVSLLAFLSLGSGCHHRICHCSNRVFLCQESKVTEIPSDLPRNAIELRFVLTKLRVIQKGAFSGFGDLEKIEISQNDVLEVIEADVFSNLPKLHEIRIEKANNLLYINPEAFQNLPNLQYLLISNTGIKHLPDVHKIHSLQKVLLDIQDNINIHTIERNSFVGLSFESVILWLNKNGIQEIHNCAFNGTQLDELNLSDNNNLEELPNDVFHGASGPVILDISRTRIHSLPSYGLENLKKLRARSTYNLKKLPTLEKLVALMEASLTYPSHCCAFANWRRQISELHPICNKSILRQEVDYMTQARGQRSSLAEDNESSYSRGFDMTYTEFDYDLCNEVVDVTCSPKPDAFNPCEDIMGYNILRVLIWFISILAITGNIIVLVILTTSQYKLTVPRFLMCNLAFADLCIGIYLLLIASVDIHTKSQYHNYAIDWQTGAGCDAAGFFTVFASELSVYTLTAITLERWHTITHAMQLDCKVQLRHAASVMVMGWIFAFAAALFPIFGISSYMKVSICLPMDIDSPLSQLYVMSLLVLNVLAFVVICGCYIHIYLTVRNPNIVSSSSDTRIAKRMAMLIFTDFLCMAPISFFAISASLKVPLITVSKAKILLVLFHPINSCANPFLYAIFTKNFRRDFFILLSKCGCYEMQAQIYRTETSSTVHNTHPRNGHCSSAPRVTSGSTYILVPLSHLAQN
As to the kind of experiment: Agonist activity at human FSHR expressed in CHO-K1 cells at 20 uM by PathHunter beta-arrestin assay relative to control. It counts as cell-based.

The target in test [5] is T3, Vasopressin V2 receptor. Description: Agonist activity at human AVPR2 at 20 uM by PathHunter beta-arrestin assay relative to control.
Test [6] concerns the target T2, C-C chemokine receptor type 3 (Homo sapiens). Description: Agonist activity at human CCR3 expressed in CHO-K1 cells at 20 uM by PathHunter beta-arrestin assay relative to control. In kind it is cell-based.
The target of test [7] is T5, Oxytocin receptor (Homo sapiens) (UniProt P30559).
T5 sequence (whole entry): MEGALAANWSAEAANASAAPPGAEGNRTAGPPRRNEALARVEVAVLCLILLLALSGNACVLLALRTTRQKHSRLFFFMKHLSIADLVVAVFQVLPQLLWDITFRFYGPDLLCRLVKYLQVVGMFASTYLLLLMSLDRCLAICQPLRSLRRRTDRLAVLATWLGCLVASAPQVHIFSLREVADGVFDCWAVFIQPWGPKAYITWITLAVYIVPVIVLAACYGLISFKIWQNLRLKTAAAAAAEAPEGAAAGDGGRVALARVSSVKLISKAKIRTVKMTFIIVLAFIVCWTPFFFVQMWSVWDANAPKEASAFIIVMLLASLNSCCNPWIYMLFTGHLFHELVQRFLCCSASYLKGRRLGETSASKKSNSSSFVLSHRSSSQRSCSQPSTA
Description: Agonist activity at human OXTR expressed in CHO-K1 cells at 20 uM by PathHunter beta-arrestin assay relative to control. In kind it is cell-based.

For test [8], the system named is U2OS. Description: Agonist activity at NPSR1B in human U2OS cells at 20 uM by PathHunter beta-arrestin assay relative to control. In kind it is cell-based.
The target in test [9] is T6, Prolactin-releasing peptide receptor (Homo sapiens) (UniProt P49683).
T6 sequence (whole entry): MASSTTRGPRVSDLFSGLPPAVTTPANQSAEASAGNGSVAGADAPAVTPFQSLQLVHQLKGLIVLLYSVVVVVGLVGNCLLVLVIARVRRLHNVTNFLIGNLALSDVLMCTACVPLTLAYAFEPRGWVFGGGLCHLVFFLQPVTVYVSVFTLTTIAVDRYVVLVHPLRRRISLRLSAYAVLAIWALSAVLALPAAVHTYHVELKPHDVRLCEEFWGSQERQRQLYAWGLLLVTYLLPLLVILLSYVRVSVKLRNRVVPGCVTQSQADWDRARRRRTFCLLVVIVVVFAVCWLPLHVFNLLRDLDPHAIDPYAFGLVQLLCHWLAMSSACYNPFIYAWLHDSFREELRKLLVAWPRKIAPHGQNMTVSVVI
Description: Agonist activity at human PRLHR expressed in CHO-K1 cells at 20 uM by PathHunter beta-arrestin assay relative to control. In kind it is cell-based.

In test [10] the target is D(2) dopamine receptor (Homo sapiens) (UniProt P14416). Description: Agonist activity at human DRD2L expressed in CHO-K1 cells at 20 uM by PathHunter beta-arrestin assay relative to control. It counts as cell-based.
Sequence of D(2) dopamine receptor (Homo sapiens) (P14416 whole entry): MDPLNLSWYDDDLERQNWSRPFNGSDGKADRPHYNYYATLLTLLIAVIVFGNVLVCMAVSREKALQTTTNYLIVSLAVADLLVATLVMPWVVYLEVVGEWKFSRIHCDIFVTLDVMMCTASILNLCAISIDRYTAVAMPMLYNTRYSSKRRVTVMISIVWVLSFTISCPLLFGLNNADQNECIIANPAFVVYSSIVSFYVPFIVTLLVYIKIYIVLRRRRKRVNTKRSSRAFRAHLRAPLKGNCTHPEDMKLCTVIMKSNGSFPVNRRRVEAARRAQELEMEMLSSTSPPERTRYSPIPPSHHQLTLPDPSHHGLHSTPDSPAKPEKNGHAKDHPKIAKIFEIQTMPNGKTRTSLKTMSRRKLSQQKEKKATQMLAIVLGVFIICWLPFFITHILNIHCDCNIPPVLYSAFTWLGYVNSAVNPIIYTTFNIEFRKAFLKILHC
For test [11], the target named is T1, CX3C chemokine receptor 1 (Homo sapiens). As to the kind of experiment: Antagonist activity at human CX3CR1 expressed in CHO-K1 cells at 20 uM by PathHunter beta-arrestin assay relative to control. It counts as cell-based. The conditions noted are these: filed as antagonist.
Test [12] concerns the target T6, Prolactin-releasing peptide receptor (Homo sapiens). Description: Antagonist activity at human PRLHR expressed in CHO-K1 cells at 20 uM by PathHunter beta-arrestin assay relative to control. The conditions noted are these: filed as antagonist. In kind it is cell-based.
Test [13] addresses D(2) dopamine receptor (Homo sapiens) (UniProt P14416). As to the kind of experiment: Antagonist activity at human DRD2L expressed in CHO-K1 cells at 20 uM by PathHunter beta-arrestin assay relative to control. In kind it is cell-based.
For test [14], the target named is T7, C-C chemokine receptor type 8 (Homo sapiens, UniProt P51685). As to the kind of experiment: Agonist activity at human CCR8 expressed in CHO-K1 cells at 20 uM by PathHunter beta-arrestin assay relative to control. It counts as cell-based.
T7 sequence (P51685 whole entry): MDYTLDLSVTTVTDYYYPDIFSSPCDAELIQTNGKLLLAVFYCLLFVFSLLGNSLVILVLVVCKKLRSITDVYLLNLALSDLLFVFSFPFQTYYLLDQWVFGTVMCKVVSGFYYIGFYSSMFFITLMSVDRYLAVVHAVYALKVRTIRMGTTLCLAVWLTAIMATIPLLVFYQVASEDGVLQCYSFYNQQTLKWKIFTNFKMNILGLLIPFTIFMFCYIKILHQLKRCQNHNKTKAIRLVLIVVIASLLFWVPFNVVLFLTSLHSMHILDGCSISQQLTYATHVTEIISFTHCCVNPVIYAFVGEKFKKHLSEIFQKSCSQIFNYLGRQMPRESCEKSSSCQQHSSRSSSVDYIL
Test [15] concerns the target T7, C-C chemokine receptor type 8. As to the kind of experiment: Antagonist activity at human CCR8 expressed in CHO-K1 cells at 20 uM by PathHunter beta-arrestin assay relative to control. In kind it is cell-based. The note with it: filed as antagonist.
Test [16] has as its target T4, Follicle-stimulating hormone receptor (Homo sapiens). As to the kind of experiment: Antagonist activity at human FSHR expressed in CHO-K1 cells at 20 uM by PathHunter beta-arrestin assay relative to control. In kind it is cell-based. The note with it: filed as antagonist.
In test [17] the target is T8, C-X-C chemokine receptor type 4 (Homo sapiens, UniProt P61073). Description: Agonist activity at human CXCR4 expressed in mouse C2C12 cells at 20 uM by PathHunter beta-arrestin assay relative to control. It counts as cell-based.
T8 sequence (P61073 whole entry): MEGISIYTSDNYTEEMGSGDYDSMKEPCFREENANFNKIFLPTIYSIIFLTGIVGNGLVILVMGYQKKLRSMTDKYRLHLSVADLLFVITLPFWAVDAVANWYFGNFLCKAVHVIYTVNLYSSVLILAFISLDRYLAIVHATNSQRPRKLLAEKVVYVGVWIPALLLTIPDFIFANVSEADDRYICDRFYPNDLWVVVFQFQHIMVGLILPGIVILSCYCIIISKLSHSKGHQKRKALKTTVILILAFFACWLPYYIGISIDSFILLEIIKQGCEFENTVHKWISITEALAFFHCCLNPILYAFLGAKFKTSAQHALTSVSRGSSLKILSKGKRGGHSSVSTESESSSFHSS
Test [18] deals with T5, Oxytocin receptor (Homo sapiens). Description: Antagonist activity at human OXTR expressed in CHO-K1 cells at 20 uM by PathHunter beta-arrestin assay relative to control. In kind it is cell-based.
The subject of test [19] is U2OS. Description: Antagonist activity at NPSR1B in human U2OS cells at 20 uM by PathHunter beta-arrestin assay relative to control. In kind it is cell-based.
The target of test [20] is T8, C-X-C chemokine receptor type 4. As to the kind of experiment: Antagonist activity at human CXCR4 expressed in mouse C2C12 cells at 20 uM by PathHunter beta-arrestin assay relative to control. In kind it is cell-based. The note with it: filed as antagonist.
The target of the next test is T9, Oxytocin receptor (Homo sapiens, UniProt P30559).
T9 sequence (P30559 whole entry): T5 sequence (whole entry)
Description: Antagonist activity at human OXTR expressed in CHO-K1 cells by PathHunter beta-arrestin assay. It counts as cell-based.

The source made the active and inactive calls. The calls are words filed in the database; no cut-off is given here.

For `COC(=O)[C@@H]1[C@H]2C[C@@H]3N(CC[C@@]34C(=O)N(c3cncc(OC)n3)c3ccccc34)C[C@@H]2CC[C@@H]1O`, the outcome (in test [1]; in [4]; on Vasopressin V2 receptor [5]; in [6]; in [7]; in the test with U2OS [8]) was inactive. The outcome in test [9], in test [10], in test [14] and in test [17] was inactive. Further, the inhibition in [2] is -7%; against Vasopressin V2 receptor [3] (filed as antagonist), 9%; in [11] it was 9%; in test [12], 2%; in test [13], -8%; in test [15] it was 9%. In test [16], the inhibition was 11%.
For the compound `COC(=O)[C@@H]1[C@H]2C[C@@H]([C@@]3(CCn4cc(CCCCO)nn4)C(=O)Nc4ccccc43)N(C#N)C[C@@H]2CC[C@@H]1O`, the outcome (in test [1]; in test [4]; on Vasopressin V2 receptor [5]; in [6]; in test [7]; in the test on U2OS [8]) was inactive. Besides, the outcome in [9], in test [10], in [14] and in [17] was inactive. Besides, the inhibition on Vasopressin V2 receptor [3] (filed as antagonist) came out at 1%; in test [11], 11%; in [12] it was 9%; in test [18], 0%; in [15], 5%; in test [16], 2%.
As to `COC(=O)[C@@H]1[C@H]2C[C@@H]3OCc4ccccc4-n4c3c(c3ccccc34)CCN(C#N)C[C@@H]2CC[C@@H]1O`, the result (in test [1]; in [4]; at Vasopressin V2 receptor [5]; in test [6]; in test [7]; in the test on U2OS [8]) was inactive. In addition, the outcome in test [9], in test [10], in test [14] and in [17] was inactive. Also, the inhibition in test [2] (filed as antagonist) was found to be 2%; at Vasopressin V2 receptor [3] (filed as antagonist), 16%; in test [11], 20%; in test [12], 5%; in test [18] (filed as antagonist), 27%; in test [13] (filed as antagonist), 3%. Further, the inhibition in [15] is 15%; in test [16] it was 5%.
Turning to `COC(=O)[C@@H]1[C@H]2C[C@H]3c4[nH]c5ccccc5c4CCN3C[C@@H]2CC[C@@H]1O`, the result (in [1]; in test [4]; at Vasopressin V2 receptor [5]; in test [6]; in test [7]; in the test on U2OS [8]) was inactive. Moreover, the result in test [9], in test [10], in test [14] and in test [17] was inactive. The inhibition was -1% at Vasopressin V2 receptor [3]; 22% in test [11]; 5% in test [18] (filed as antagonist); -3% in the test with U2OS [19]; 4% in [16].
`COC(=O)[C@@H]1[C@H]2C[C@H]3OCc4ccccc4-n4c3c(c3ccccc34)CCN(C#N)C[C@@H]2CC[C@@H]1O`: the outcome (in [1]; in [4]; on Vasopressin V2 receptor [5]; in test [6]; in [7]; in the test on U2OS [8]) was inactive. The outcome in test [9], in test [10], in test [14] and in [17] was inactive. Also, the inhibition in test [2] is -2%; against Vasopressin V2 receptor [3], -1%; in test [20] it was 10%; in test [11], 9%; in test [18], 0%; in test [13], -2%. Also, the inhibition with U2OS [19] (filed as antagonist) amounted to 1%; in test [15], 10%; in test [16] it was 12%.
As to `Cc1ccccc1N1CCN(S(=O)(=O)CC23CCC(C[C@@H]2NC(=O)[C@@H](N)CCS(C)(=O)=O)C3(C)C)CC1` (stereo partly specified), the concentration for half-maximal inhibition (IC50) against Oxytocin receptor came to 4.62 nM.

These data come from ChEMBL document CHEMBL4725259 (Bioorg Med Chem, 2020).
